The results in this text go back to patent US7265139B2, “RXR activating molecules” (Incyte San Diego Inc., priority 2001, dated 2007).

Data set [1] addresses T1, RXR receptor (Homo sapiens, UniProt P19793).
T1 construct: expressed in transfected cells
T1 sequence (P19793 1-462): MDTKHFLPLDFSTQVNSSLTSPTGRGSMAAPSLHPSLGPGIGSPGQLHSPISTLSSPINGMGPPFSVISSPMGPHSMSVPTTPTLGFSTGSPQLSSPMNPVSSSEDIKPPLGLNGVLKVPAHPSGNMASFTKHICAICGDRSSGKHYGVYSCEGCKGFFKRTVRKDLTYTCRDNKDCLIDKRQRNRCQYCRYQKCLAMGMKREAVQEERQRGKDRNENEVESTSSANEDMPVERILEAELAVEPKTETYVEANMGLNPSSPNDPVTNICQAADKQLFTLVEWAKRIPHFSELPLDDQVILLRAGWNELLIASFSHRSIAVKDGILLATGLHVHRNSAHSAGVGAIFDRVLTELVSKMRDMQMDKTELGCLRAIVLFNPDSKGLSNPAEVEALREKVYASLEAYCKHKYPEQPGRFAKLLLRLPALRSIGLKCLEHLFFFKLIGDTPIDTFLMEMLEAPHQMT
As to the kind of experiment: RXR activation (transient transfection reporter assay). It is filed as cell-based. The note with it: 1 μM compared to 9-cis-RA at equal concentration. An excerpt:
RXR agonists activate the RXR receptor when interacting with RXR by binding to its binding pocket. This activation can be independent of whether the agonist, while interacting with portions of the ligand binding pocket, also interacts with side pocket 1. Activation, also often referred to as transcriptional activation, of RXR by agonists can be measured by a number of commonly used assays where the effect of the agonist ligand interacting with the RXR ligand binding pocket is to stimulate or induce transcription of a gene or genes in a cell. In one particular embodiment, transient transfection experiments (as described essentially by Zhang, et al. (1996) Negative Regulation of Peroxisome Proliferator—Activated Receptor—γ Gene Expression Contributes to the Antiadipogenic effects of Tumor Necrosis Factor—α. Mol. Endo. 10:1457-1456) can be used. In these cases, full length RXR proteins are expressed in living cells. Alternatively, hybrid proteins that contain a portion of another DNA binding domain and the ligand binding portion of the human RXRα receptor can be expressed in living cells instead of the full length RXR protein. Such hybrid proteins can bind to and activate specific reporter genes introduced into the same living cell and activation of such reporter genes is measured. The assays described here are very commonly used today by people skilled in the art of molecular biology experimenting. Transient transection assays are often used instead of ligand binding assays and can serve to measure or estimate an affinity of an RXR agonist ligand for RXR protein. The effective dose fifty (ED50, also called EC50) is the concentration of the ligand necessary to lead to one half maximal activation of the reporter gene in a living cell. Compounds that show 60% of the activity of the agonist 9-cis retenoic acid at 10^−6 M can be considered an RXR activator/agonist. Compounds which show 70% 80% 90% of the activity of the agonist 9-cis retinoic acid are also provided.
To confirm that the computer modeling/design of a compound does result in an RXR activator or RXR agonist, i.e. a compound that leads to RXR activation or transcriptional activation, commonly used assays can be applied, where the effect of the agonist or activator, interacting with the RXR ligand binding pocket is to stimulate or induce transcription of a gene or genes in a cell. In one particular embodiment, transient transfection experiments (as described essentially by Zhang, et al. (1996) Negative Regulation of Peroxisome Proliferator—Activated Receptor—γ Gene Expression Contributes to the Antiadipogenic effects of Tumor Necrosis Factor—α. Mol. Endo. 10:1457-1456) can be used. In these cases, full length RXR proteins are expressed in living cells. Alternatively, hybrid proteins that contain a portion of another DNA, binding domain and the ligand binding portion of the human RXRα receptor can be expressed in living cells instead of the fall length RXR protein. Such hybrid proteins can bind to and activate specific reporter genes introduced into the same living cell and activation of such reporter genes is measured (Brand, A. H. & Perrimon, 1993, Development, 118:401-415; Moya-Camarena, S. Y. et.al., 1999, J. Lipid Res., 40:1426:1433; Yi, Y. W. et al., 2000, Biochem. Biophys. Res. Commun., 272:193-198, each are herein incorporated by reference at least for material related to reporter assays). These assays not only measure binding of the ligand to its target, which could also be measured by an in vitro binding assay, but also measure the agonistic or activator activity of the compound. In such an assay, new compounds are compared to a standard activator like compound I or the natural agonist of RXR: 9-cis retinoic acid (see Example 7). For instance, all compounds that show at a given concentration at least 60% of the activity of 9-cis retinoic acid can be considered useful activators.

Data set [2] concerns KKA^y mice. As to the kind of experiment: Antidiabetic activity in type 2 diabetic KKA^y mice. The note with it: for Efficacious in KKAy Mice: efficacious = lowers glucose without increasing triglycerides. It is filed as in vivo, mouse. On the procedure:
Prior to commencing treatment, all of the animals are bled from the tail vein and serum levels of glucose and triglyceride are measured in duplicate. The animals are then sorted into different treatment groups with equal average triglyceride levels. The animals are treated with a single daily oral dose of the test compound suspended in sesame oil (dose volume of 3 ml/kg).
In short, adult diabetic KKA^y mice are housed in a fixed 12—12-hr artificial light-dark cycle, and maintained on a standard rodent diet. Prior to commencing treatment, all of the animals are bled from the tail vein and serum levels of glucose and triglyceride are measured in duplicate. The animals are then sorted into different treatment groups with equal average triglyceride levels. The animals are treated with a single daily oral dose ranging from 3-30 mg/kg of the test compound suspended in sesame oil (dose volume of 3-5 ml/kg). Following one week of treatment the animals are bled from the tail vein and Serum glucose and triglycerides are measured in duplicate.
In this example, compound 1, which belongs to the novel subclass of RXR ligands is compared to a typical RXR ligand like compound 2 in the treatment of KKA^y mice.
For this study, adult diabetic KKA^y mice were housed in a fixed 12—12-hr artificial light-dark cycle, and maintained on a standard rodent diet. Prior to commencing treatment, all of the animals are bled from the tail vein and serum levels of glucose and triglyceride are measured in duplicate. The animals are then sorted into different treatment groups with equal average triglyceride levels. The animals are treated with a single daily oral dose of the test compound suspended in sesame oil (dose volume of 3 ml/kg).

Data set [3] deals with Mouse 3T3-L1 preadipocytes. As to the kind of experiment: 3T3-L1 adipocyte differentiation assay. It is filed as cell-based. The note with it: 0.1 μM compared to Compound 1 at equal concentration; pre-adipocytes to adipocytes. On the procedure:
Mouse 3T3-L1 cells were grown in 96-well tissue culture plates containing growing medium (DME containing 10% calf serum (CS) plus glutamine-pen-strep) at a density of 3,000 cells/well. Two days after reaching confluence, cells are treated with the different compounds in DM (Day 0). Compound 1 is included in all the experiments, and its ability to differentiate 3T3-L1 cells at 0.1 μM is taken as reference for 100% differentiation. After 7 days the lipid content of the cells was determined.
Prior to testing compounds in vivo, they can be run through the in vitro adipocyte differentiation assay based on the protocol of Zhang, et al. (1996) Negative Regulation of Peroxisome Proliferator—Activated Receptor—γGene Expression Contributes to the Antiadipogenic effects of Tumor Necrosis Factor—α. Mol. Endo. 10:1457-1456, incorporated herein by reference. In short, mouse 3T3-L1 preadipocytes are grown in culture medium containing 10% calf serum supplemented with antibiotics. Two days after reaching confluence, cells are treated with the selected compound at different concentrations dissolved in medium containing 10% fetal calf serum supplemented with antibiotics and kept at 10% CO2. The test compounds are replaced every 2-3 days. Differentiation is assessed after 7 days of treatment by the lipid content in the cells, using the Triglyceride (INFINITY) reagent (Sigma Chemical, St. Louis, Mo.).
The ability of a compound to induce preadipocytes to differentiate into adipocytes is an indicator of its antidiabetic activity. This allows for screening many compounds in a simple in vitro assay, thus avoiding the task of testing all compounds in vivo. The adipocyte differentiation assay is based on the protocol of Zhang, et al. (1996) Negative Regulation of Peroxisome Proliferator-Activated Receptor-γ Gene Expression Contributes to the Antiadipogenic effects of Tumor Necrosis Factor—α. Mol. Endo. 10:1457-1456, incorporated herein by reference at least for material related to adipocyte differentiation assays. Mouse 3T3-L1 preadipocytes are grown in culture medium containing 10% calf serum supplemented with antibiotics. Two days after reaching confluence, cells are treated with the selected compound at different concentrations dissolved in medium containing 10% fetal calf serum supplemented with antibiotics and kept at 10% CO2. The test compounds are replaced every 2-3 days. Differentiation is assessed after 7 days of treatment by the lipid content in the cells, using the Triglyceride (INFINITY) reagent (Sigma Chemical, St. Louis, Mo.) (see FIG. 15).

Each structure is given as a SMILES string. A value given as a limit tells only on which side of the number the result lay.

Turning to `CCN1C(=O)CC(C)(C)c2cc(C)c(-c3cc(/C=C4\SC(=O)NC4=O)ccc3OC(F)(F)F)cc21` [Compound 8, 5-[3-(1-Ethyl-4,4,6-trimethyl-2-oxo-1,2,3,4-tetrahydro-quinolin-7-yl)-4-trifluoromethoxy-benzylidene]-thiazolidine-2,4-dione], the “RXR Activation” value in data set [1] is 90%. In addition, the “Efficacious in KKAy Mice” value in data set [2] is recorded as “Yes”. Moreover, in data set [3], the “Differentiation Activity” value is listed as 95%.
Take `CON=C1CCC(C)(C)c2cc(C)c(-c3cc(C=C4SC(=O)NC4=O)ccc3OC(F)(F)F)cc21` [Compound 7]: the “RXR Activation” value in data set [1] was determined as 100%. The glucose lowering activity result in data set [2] (FIG. 16) was “glucose lowering activity”. In addition, in data set [2] (FIG. 17), the triglyceride lowering activity result is given as “triglyceride lowering activity”. Moreover, the “Efficacious in KKAy Mice” value in data set [2] is reported as “Yes”. Besides, in data set [3], the “Differentiation Activity” value worked out at 80%.
The compound `CO/N=C1\CCC(C)(C)c2cc(C)c(-c3cc(/C=C4\SC(=O)NC4=O)ccc3N(C)C)cc21` gave a melting point of 254 to 256 °C.
Same read-out and setting: for `CO/N=C1\CCC(C)(C)c2cc(C)c(-c3cc(/C=C4\SC(=O)NC4=O)ccc3OC(F)(F)F)cc21` [Example 8, 3-[(1-Oxo-4,4,6-trimethyl-1,2,3,4-tetrahydronaphthalene-7-yl)-O-methyloxime]-4-trifluoromethoxy-benzylidene-2,4-thiazolidinedione] the value was 224 °C.
With `Cc1cc2c(cc1-c1cc(C=C3SC(=O)NC3=O)ccc1O)C(C)(C)CCC2(C)C` [Compound 4], in data set [1], the “RXR Activation” value is listed as >100%. Besides, the “Efficacious in KKAy Mice” value in data set [2] is recorded as “No”. The “Differentiation Activity” value in data set [3] is listed as >100%.
Turning to `COc1ccc(C=C2SC(=O)NC2=O)cc1-c1cc2c(cc1C)C(C)(C)CCC2(C)C` [Compound 6], the “RXR Activation” value in data set [1] is on record as >100%. For the same compound, the “Efficacious in KKAy Mice” value in data set [2] was “No”. The “Differentiation Activity” value in data set [3] is >100%.
Consider `Cc1cc2c(cc1C1(c3ccc(C(=O)O)cn3)CC1)C(C)(C)CCC2(C)C` [Compound 5], for which, in data set [2], the “Efficacious in KKAy Mice” value is recorded as “No”. For the same compound, the “Differentiation Activity” value in data set [3] is >100%.
In the case of `CC(C)Cc1cc(-c2cc(C=C3SC(=O)NC3=O)ccc2OC(F)(F)F)c2c(c1)C(C)(C)CO2` [Compound 9], in data set [1], the “RXR Activation” value amounted to 125%. Further, the “Efficacious in KKAy Mice” value in data set [2] is recorded as “Yes”. For the same compound, in data set [3], the “Differentiation Activity” value turned out to be 30%.
Taken in the same sequence, the figures for `Cc1cc2c(cc1-c1cc(C=C3SC(=O)NC3=O)ccc1N(C)C)C(C)(C)CCC2(C)C` [Compound 3] were 120%, “Yes” and 100%.
`CO/N=C1\CCC(C)(C)c2cc(C)c(-c3cc(/C=C4\SC(=O)NC4=O)ccc3Cl)cc21` came in with a melting point of 252 to 254 °C.

A word on the melting point: it is the temperature of the solid-liquid transition.
